The values that follow come from patent US7517877B2, “5-substituted-alkylaminopyrazole derivatives as pesticides” (Merial Limited, priority 2002, dated 2009).

Series [1] deals with Nephotettix cinciceps (Rice Leafhopper). Put plainly: Method C: Nephotettix cinciceps (Rice Leafhopper) screen, dipped rice plants. In kind it is in vivo, Nephotettix cincticeps. Conditions: 144 h, test concentration of 100 ppm, L3 larvae, after 6 days storage. The method, then: Method C: Nephotettix Cinciceps (Rice Leafhopper) Screen
The leaves of 12 rice plants having a stem length of 8 cm were dipped for 5 seconds into an aqueous solution of the formulated test compound. After the solution had run off, the rice plants treated in this manner were placed in a Petri dish and populated with about 20 larvae (L3 stage) of Nephotettix cincticeps. The Petri dish was closed and then stored in a climate chamber (16 hours of light/day, 25° C., 40-60% relative humidity). After 6 days storage, the percentage mortality of leafhopper larvae was determined.

Structures are written as SMILES. A value given as a limit tells only on which side of the number the result lay.

Take `CCSCCCNc1c(S(=O)(=O)C(F)(F)F)c(C#N)nn1-c1c(Cl)cc(C(F)(F)F)cc1Cl` [Compound 1-14, 1-(2,6-dichloro-4-trifluoromethylphenyl)-3-cyano-5-(3-ethylthiopropylamino)-4-trifluoromethylsulfonylpyrazole]: the melting point (usually the temperature, or range, at which the solid turns liquid) was determined as 80 °C.
The same measure, in the same setting: to `CCSCCCN(C)c1c(S(=O)(=O)C(F)(F)F)c(C#N)nn1-c1c(Cl)cc(C(F)(F)F)cc1Cl` [Compound 2-14, 1-(2,6-dichloro-4-trifluoromethylphenyl)-3-cyano-5-[N-(3-ethylthiopropyl)-N-methylamino]-4-trifluoromethylsulfonylpyrazole] belongs 89 °C.
As to `[O-][S+](C1CCSC1)C1CCSC1` (stereo not drawn) [Compound 1-37, 3-tetrahydrothienyl sulfoxide], in series [1], the mortality (usually the percentage killed) at 100 ppm is at least 98%.
